Numbers after ± are expanded uncertainties.
Conditions: 298.15 K, Calvet calorimetry with correction to 298 K for gas heat capacity

molar enthalpy of sublimation (Crystal) [kcal/mol]	molar enthalpy of vaporization (Liquid) [kcal/mol]	SMILES
14.7 ± 0.765	–	Cc1cc(C)n(C)n1 [1,3,5-trimethylpyrazole]
–	15.8 ± 0.956	Cc1cc[nH]n1 [3-methylpyrazole]

— the NIST ThermoML archive (doi:10.1016/j.jct.2007.09.001)
